Here are results for 16 compounds from patent US20200308240A1, “Targeting Innate Immune Signaling in Neuroinflammation and Neurodegeneration” (The General Hospital Corporation, priority 2016, published 2020).

“Also recorded” adds a separate entry of the source.

Assay [1] deals with neuronal differentiated ReNcell VM cells. Description: dsRNA mimetic (PolyIC)-induced neurodegeneration in differentiated ReNVM neurons, cell viability by Celltiter-Glo. The assay is classed as cell-based, human. The following applies: for rescue of PolyIC (dsRNA)-induced neurodegeneration / neuronal death: differentiated ReNVM human neurons transfected with PolyIC, FIGS. 4B-N; for viability of ReNVM neurons transfected with PolyIC: escalating doses of poly IC, 48 hours (2 days), relative to mock-transfected neurons, FIG. 3A-F. How it is done:
FIGS. 3A-G. dsRNA induces a Type I interferon response and is sufficient to induced neurodegeneration in human neurons. A-E) Representative transmitted light images of differentiated ReNVM neurons transfected with increasing doses of PolyIC, a dsRNA mimetic, showing a dose-dependent loss of neurons after 48 hours. […] G) Western blots showing the elevated protein expression of type I interferon-stimulated genes in differentiated ReNVM cells 24 hour post transfection with PolyIC, using indicated antibodies.
FIGS. 4A-N. Inhibitors of key type I interferon regulators rescues PolyIC induced neurodegeneration in ReNVM cells.
Building on those findings, a novel in vitro human neuronal culture system was developed to recapitulate this pathophysiologic process. These cells can be used, e.g., to identify compounds that modulate dsRNA-mediated neurodegeneration, as a methodology for screening and validation of hits for the novel targets and related targets on the pathway for neurodegeneration and Alzheimer's disease pathogenesis as well as for purposes of drug screening and validation with the primary outcome being loss of neurons. Briefly, a dsRNA-mimetic was introduced into a human neural progenitor immortalized cell line, ReN VM cells, in vitro. There was profound induction of the Type I interferon signaling pathways that were stimulated in mouse models of neurodegeneration including the pattern recognition receptors, PKR and MDA5. Importantly, accelerated neuronal death was also observed over 48 hours that was dependent on the dose of the dsRNA introduced into the cytoplasm. These cell-based phenotypes in human neurons recapitulated and extended findings (described in PCT/US2015/060401) outlining cytoplasmic double-stranded RNA mediated neuronal cell death in multiple transgenic mouse lines (Nd1, Nd2, and Nd3), each expressing a different gene, and a model of induced cytoplasmic dsRNA of GFP causing accelerated neurodegeneration.
Deploying this cell-based in vitro model of accelerated neurodegeneration of human neurons, a number of inhibitors of Type I interferon signaling pathways were tested.
To determine if cytoplasmic dsRNA is sufficient to mediate neurodegeneration in human neurons, we transfected neuronal differentiated ReNcell VM cells 27, 28, a human neural cell line derived from ventral mesencephalon, with escalating doses of poly IC (which mimics a GC dinucleotide repeat). […] We observed a marked induction of the pattern recognition receptors MDA5 and PKR that are cytoplasmic receptors for dsRNA (FIG. 3G) and TBK1 phosphorylation (FIG. 4A). In addition, downstream signaling events, i.e., MAVS reduction and IRF3 translocation to the nucleus for the MDA5 pathway, and phosphorylation of p38 and HSP27 for the PKR pathway, indicate that that neurons are capable of mounting this innate immune response intrinsically. […]
In general terms: Cellular ATP, detected with luciferase, serves as a proxy for viable cell number.

For a further assay, the system named is IRF3 phosphorylation. Description: IRF3 phosphorylation in poly-IC transfected ReNcell VM neurons. The following applies: poly-IC transfected ReNcell VM neurons treated with inhibitor. The assay is classed as cell-based, human. From the text: To determine if cytoplasmic dsRNA is sufficient to mediate neurodegeneration in human neurons, we transfected neuronal differentiated ReNcell VM cells 27, 28, a human neural cell line derived from ventral mesencephalon, with escalating doses of poly IC (which mimics a GC dinucleotide repeat). […] We observed a marked induction of the pattern recognition receptors MDA5 and PKR that are cytoplasmic receptors for dsRNA (FIG. 3G) and TBK1 phosphorylation (FIG. 4A). In addition, downstream signaling events, i.e., MAVS reduction and IRF3 translocation to the nucleus for the MDA5 pathway, and phosphorylation of p38 and HSP27 for the PKR pathway, indicate that that neurons are capable of mounting this innate immune response intrinsically.
Many mutations in the TBK1 coding region are linked to ALS and FTD in an autosomal dominant manner. Expression of these mutant isoforms have been difficult to detect at the RNA and protein levels, giving rise to the hypothesis that haploinsufficiency of TBK1 drives neurodegeneration. Inhibition of TBK1 kinase activity challenge the hypothesis that LOF mutations cause the pathogenesis. TBK1 is activated by polyubiquitination and regulated by proteins binding to its CCH domain, including optineurin which binds TBK1, is mutated in some familial forms of ALS that abrogates inhibition of IRF3 4.

Consider `O=C(NCCCNc1nc(Nc2cccc(NC(=O)N3CCCC3)c2)ncc1I)c1cccs1` [NK-6], for which the results for the “rescue of PolyIC (dsRNA)-induced neurodegeneration / neuronal death” value in assay [1] and in assay [1] (listed as BX795) were “dose-dependent rescue of dsRNA-mediated neurodegeneration” and “rescues poly-IC-mediated neurodegeneration in a dose dependent manner; also recorded: rescued PolyIC induced neurodegeneration”, respectively.
Take `O=C(Nc1nc2cccc(-c3ccc(CN4CCS(=O)(=O)CC4)cc3)n2n1)C1CC1` [Filgotinib, N-[5-[4-[(1,1-Dioxido-4-thiomorpholinyl)methyl]phenyl][1,2,4]triazolo[1,5-a]pyridin-2-yl]cyclopropanecarboxamide]: in assay [1], the “rescue of PolyIC (dsRNA)-induced neurodegeneration / neuronal death” value was “blocked neurodegeneration in dose dependent manner; also recorded: rescued PolyIC induced neurodegeneration”.
Consider `Cc1cc(Nc2nc(N[C@@H](C)c3ncc(F)cn3)ncc2Cl)n[nH]1` [AZD1480, 5-Chloro-N2-[(1S)-1-(5-fluoro-2-pyrimidinyl)ethyl]-N4-(5-methyl-1H-pyrazol-3-yl)-2,4-pyrimidinediamine], for which the “rescue of PolyIC (dsRNA)-induced neurodegeneration / neuronal death” value in assay [1] was “rescued PolyIC induced neurodegeneration”.
Take PolyIC: the figures for the “viability of ReNVM neurons transfected with PolyIC” value in assay [1] and in assay [1] (listed as poly IC) were “dose-dependent loss in cell viability” and “dose-dependent reduction in their viability”, respectively.
For `CC1(C)C(=O)C=C[C@]2(C)[C@H]3CC[C@@]4(C)[C@H](c5ccoc5)OC(=O)[C@H]5O[C@]54[C@]3(C)C=C[C@@H]12` [7DG], the “rescue of PolyIC (dsRNA)-induced neurodegeneration / neuronal death” value in assay [1] is “did not show rescue of the neuronal death phenotype”.
With `C1=C/COCc2cc(ccc2OCCN2CCCC2)Nc2nccc(n2)-c2cccc(c2)COC/1` [Pacritinib-1, 11-(2-pyrrolidin-1-yl-ethoxy)-14,19-dioxa-5,7,26-triaza-tetracyclo[19.3.1.1(2,6).1(8,12)]heptacosa-1(25),2(26),3,5,8,10,12(27),16,21,23-decaene], the “rescue of PolyIC (dsRNA)-induced neurodegeneration / neuronal death” value in assay [1] was “blocked neurodegeneration in dose dependent manner; also recorded: rescued PolyIC induced neurodegeneration”.
In the case of `CCS(=O)(=O)N1CC(CC#N)(n2cc(-c3ncnc4[nH]ccc34)cn2)C1` [Baricitinib, 2-(3-(4-(7H-pyrrolo[2,3-d]pyrimidin-4-yl)-1H-pyrazol-1-yl)-1-(ethylsulfonyl)azetidin-3-yl)acetonitrile], in assay [1], the “rescue of PolyIC (dsRNA)-induced neurodegeneration / neuronal death” value is listed as “blocked neurodegeneration in dose dependent manner; also recorded: rescued PolyIC induced neurodegeneration”.
As to `CC(C)c1ccc2oc3nc(N)c(C(=O)O)cc3c(=O)c2c1` [NK-10, amlexanox], the figures for the “rescue of PolyIC (dsRNA)-induced neurodegeneration / neuronal death” value in assay [1] and in assay [1] (listed as Amlexanox) were “rescued neurodegeneration; also recorded: dose-dependent rescue of dsRNA-mediated neurodegeneration” and “rescued PolyIC induced neurodegeneration”, respectively.
For `O=C(Nc1ccc(-c2ccnc(Nc3ccc(N4CCOCC4)cc3)n2)cc1)[C@@H]1CCCN1` [XL019, (S)-N-(4-(2-((4-morpholinophenyl)amino)pyrimidin-4-yl)phenyl)pyrrolidine-2-carboxamide], the “rescue of PolyIC (dsRNA)-induced neurodegeneration / neuronal death” value in assay [1] is “blocked neurodegeneration in dose dependent manner; also recorded: rescued PolyIC induced neurodegeneration”.
As to `NC(=O)Nc1sc(-c2ccc(F)cc2)cc1C(N)=O` [NK-7, 2-[(Aminocarbonyl)amino]-5-(4-fluorophenyl)-3-thiophenecarboxamide], the results for the “rescue of PolyIC (dsRNA)-induced neurodegeneration / neuronal death” value in assay [1], in assay [1] (listed as TPCA1) and in assay [1] (listed as TPCA-1) were “dose-dependent rescue of dsRNA-mediated neurodegeneration”, “reversed poly-IC-mediated neurodegeneration” and “rescued PolyIC induced neurodegeneration”, respectively. Further, the IRF3 phosphorylation entry in the assay on IRF3 phosphorylation is “reduced IRF3 phosphorylation”.
As to `Cl.O=C(NN1CCC(N2CCCC2)CC1)c1ccc(Nc2nccc(-c3cc4ccccc4s3)n2)cc1` [IKK16, N-(4-Pyrrolidin-1-yl-piperidin-1-yl)-[4-(4-benzo[b]thiophen-2-yl-pyrimidin-2-ylamino)phenyl]carboxamide hydrochloride], the “rescue of PolyIC (dsRNA)-induced neurodegeneration / neuronal death” value in assay [1] (hydrochloride) is given as “reversed poly-IC-mediated neurodegeneration; also recorded: rescued PolyIC induced neurodegeneration”. Besides, the IRF3 phosphorylation entry in the assay with IRF3 phosphorylation is on record as “reduced IRF3 phosphorylation”.
On to `C[C@@H]1CCN(C(=O)CC#N)C[C@@H]1N(C)c1ncnc2[nH]ccc12` [Tofacitinib, 3-((3R,4R)-4-methyl-3-(methyl(7H-pyrrolo [2,3-d]pyrimidin-4-yl)amino)piperidin-1-yl)-3-oxopropanenitrile], for which the “rescue of PolyIC (dsRNA)-induced neurodegeneration / neuronal death” value in assay [1] was “blocked neurodegeneration in dose dependent manner; also recorded: rescued PolyIC induced neurodegeneration”.
On the same count and under the same terms, the value for `N#CCNC(=O)c1ccc(-c2ccnc(Nc3ccc(N4CCOCC4)cc3)n2)cc1` [CYT387, N-(Cyanomethyl)-4-[2-[[4-(4-morpholinyl)phenyl]amino]-4-pyrimidinyl]benzamide] was “blocked neurodegeneration in dose dependent manner; also recorded: rescued PolyIC induced neurodegeneration”.
Still for that read-out and setting: the same measure for `O=C1Nc2ccc3ncsc3c2/C1=C/c1cnc[nH]1` [C16]: “did not show rescue of the neuronal death phenotype”; for `CNC(=O)c1ccc(C)c(-n2c(C)cc(OCc3ccc(F)cc3F)c(Br)c2=O)c1` [PH 797804]: “did not show rescue of the neuronal death phenotype”.
The same measure, in the same setting: the value for `Cc1cnc(Nc2ccc(OCCN3CCCC3)cc2)nc1Nc1cccc(S(=O)(=O)NC(C)(C)C)c1` [TG101348, 2.N-tert-butyl-3-(5-methyl-2-(4-(2-(pyrrolidin-1-yl)ethoxy)phenylamino)pyrimidin-4-ylamino)benzenesulfonamide] was “blocked neurodegeneration in dose dependent manner; also recorded: rescued PolyIC induced neurodegeneration”.
